From US20210284668A1, “GOLD (I)-PHOSPHINE 1,2,3-TRIAZOLE DERIVATIVES WITH ANTIBIOTIC PROPERTIES” (Centre National de la Recherche Scientifique, priority 2018, published 2021)
Values joined by “and” are separate entries in the source; they are usually repeats but may differ in a detail not shown here. Identical values can stand only once.

How the values were obtained:
E. faecalis UCN41 = test: MIC by microdilution, E. faecalis UCN41; assay type: cell-based, Enterococcus faecalis; design: unit not given here; settings: E. faecalis UCN41 (VanA positive, glycopeptide resistant), in duplicate
How it was run: (§1)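 Broth microdilution per CLSI document M07-A10, Mueller-Hinton medium, each MIC run in duplicate. Strains include E. coli ATCC25922 (wild-type), S. epidermidis ATCC35984 (MecA positive) and S. aureus ATCC700699 (MecA positive, glycopeptide resistant), within a mixed panel of susceptible and resistant Gram-positive/Gram-negative bacteria.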

S. aureus ATCC700699 = test: MIC by microdilution, S. aureus ATCC700699; assay type: cell-based, Staphylococcus aureus; design: unit not given here; settings: S. aureus ATCC700699 (MecA positive, glycopeptide resistant), in duplicate
How it was run: (§2)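 Broth microdilution per CLSI (M07-A10) in Mueller-Hinton broth, run in duplicate; MIC recorded as minimal inhibitory concentration. Panel spans wild-type to multidrug-resistant strains, e.g. S. aureus ATCC700699 (MecA+, glycopeptide resistant), S. epidermidis ATCC35984 (MecA+), E. coli ATCC25922 (wild-type).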

E. faecalis JH2-2 = test: MIC by microdilution, E. faecalis JH2-2; assay type: cell-based, Enterococcus faecalis; design: unit not given here; settings: E. faecalis JH2-2 (wild-type), in duplicate
How it was run: as §1

S. epidermidis ATCC35984 = test: MIC by microdilution, S. epidermidis ATCC35984; assay type: cell-based, Staphylococcus epidermidis; settings: S. epidermidis ATCC35984 (MecA positive), in duplicate
How it was run: as §2

E. faecium BM4147 = test: MIC by microdilution, E. faecium BM4147; assay type: cell-based, Enterococcus faecium; design: unit not given here; settings: E. faecium BM4147 (VanA positive, glycopeptide resistant), in duplicate
How it was run: as §1

E. faecalis V583 = test: MIC by microdilution, E. faecalis V583; assay type: cell-based, Enterococcus faecalis; settings: E. faecalis V583 (VanB positive, glycopeptide resistant), in duplicate
How it was run: as §2

E. faecium AUS0004 = test: MIC by microdilution, E. faecium AUS0004; assay type: cell-based, Enterococcus faecium; settings: E. faecium AUS0004 (VanB positive, glycopeptide resistant), in duplicate
How it was run: as §1

S. aureus ATCC25923 = test: MIC by microdilution, S. aureus ATCC25923; assay type: cell-based, Staphylococcus aureus; settings: S. aureus ATCC25923 (MecA negative, wild-type), Mueller-Hinton broth, in duplicate
How it was run: as §1

S. aureus ST20131365 = test: MIC by microdilution, S. aureus ST20131365; assay type: cell-based, Staphylococcus aureus; settings: S. aureus ST20131365 (MecA positive, glycopeptide resistant), in duplicate
How it was run: as §2

S. epidermidis ATCC14990 = test: MIC by microdilution, S. epidermidis ATCC14990; assay type: cell-based, Staphylococcus epidermidis; settings: S. epidermidis ATCC14990 (MecA negative, wild-type), in duplicate
How it was run: as §2

[1] = test system: panel of Gram-positive and Gram-negative strains; test: Antibacterial profile on the selected panel of strains; assay type: cell-based; settings: for antimicrobial / antibacterial activity (in words): summary of Tables 1-12
How it was run: as §2

E. coli ATCC25922 = test: MIC by microdilution, E. coli ATCC25922; assay type: cell-based, Escherichia coli; settings: E. coli ATCC25922 (wild-type), in duplicate
How it was run: as §2

S. aureus ATCC29213 = test: MIC by microdilution, S. aureus ATCC29213; assay type: cell-based, Staphylococcus aureus; settings: S. aureus ATCC29213 (MecA negative, wild-type), Mueller-Hinton broth, in duplicate
How it was run: as §1

human hepatocyte = test: Human hepatocyte cytotoxicity profile; assay type: cell-based; settings: human hepatocytes
Experimental: FIG. 1 is a diagram representing the TMB3 human hepatocyte cytotoxicity between 7 to 25 μM (FIG. 1 A) and the ampicillin human hepatocyte cytotoxicity between 7 to 25 μM (control) (FIG. 1B. In the diagram, the abscissa represents the concentration in Log per μM and the ordinate the viability of the cells in percentage compared to the human hepatocyte culture without ampicillin trihydrate or TMB3.
The human hepatocyte cytotoxicity profile has been evaluated between 7 and 25 μM for TMB derivatives as a toxicity appeared from 25 μM for the initial hit TMB3 during a preliminary assessment.

E. faecium ATCC19434T = test: MIC by microdilution, E. faecium ATCC19434T; assay type: cell-based, Enterococcus faecium; design: unit not given here; settings: E. faecium ATCC19434T (wild-type), in duplicate
How it was run: as §1

[2] = test system: S. epidermidis ST20150446; test: MIC by microdilution, S. epidermidis ST20150446; assay type: cell-based, Staphylococcus epidermidis; settings: S. epidermidis ST20150446 (MecA positive, glycopeptide resistant), in duplicate
How it was run: as §1

[3] = test system: S. epidermidis ST20140436; test: MIC by microdilution, S. epidermidis ST20140436; assay type: cell-based, Staphylococcus epidermidis; settings: S. epidermidis ST20140436 (MecA positive, glycopeptide resistant), in duplicate
How it was run: as §1

[4] = test system: Clostridium difficile ATCC700057; test: MIC by microdilution, Clostridium difficile; assay type: cell-based; settings: strain ATCC70057 [sic] (Tables 1-2) / ATCC700057 (Tables 3-10), in duplicate

Structure (SMILES)	Minimal Inhibitory Concentration (MIC) (E. faecalis UCN41)	Minimal Inhibitory Concentration (MIC) (S. aureus ATCC700699)	Minimal Inhibitory Concentration (MIC) (E. faecalis JH2-2)	Minimal Inhibitory Concentration (MIC) (S. epidermidis ATCC35984)	Minimal Inhibitory Concentration (MIC) (E. faecium BM4147)	Minimal Inhibitory Concentration (MIC) (E. faecalis V583)	Minimal Inhibitory Concentration (MIC) (E. faecium AUS0004)	Minimal Inhibitory Concentration (MIC) (S. aureus ATCC25923)	Minimal Inhibitory Concentration (MIC) (S. aureus ST20131365)	Minimal Inhibitory Concentration (MIC) (S. epidermidis ATCC14990)	MICs measured, as range of concentrations ([1]; depending on the bacteria strains) [µM]	antimicrobial / antibacterial activity (in words) [1]	Minimal Inhibitory Concentration (MIC) (E. coli ATCC25922)	Minimal Inhibitory Concentration (MIC) (S. aureus ATCC29213)	concentration at which cytotoxicity appears (human hepatocyte; evaluated between 7 and 25 μM) [µM]	concentration from which toxicity appeared (human hepatocyte; preliminary assessment) [µM]	Minimal Inhibitory Concentration (MIC) (E. faecium ATCC19434T)	Minimal Inhibitory Concentration (MIC) [2]	Minimal Inhibitory Concentration (MIC) [3]	Minimal Inhibitory Concentration (MIC) [4]
CC[P+](CC)(CC)[Au-][c]1nn[nH]c1COC(=O)NC(C(=O)NC1C(=O)N2C1SC(C)(C)C2C(=O)O)c1ccccc1 (stereo not drawn) [TMB3]	1 and 0.5	0.125 and 0.25	0.5 and 1	≤0.06	2 and 1	1	1	0.125 and 0.25	0.125 and 0.25	≤0.06	0.08 to 0.63	have antimicrobial activity	>8	0.125 and 0.25	20	25	1 and 0.5	–	–	–
CC1(C)S[C@@H]2[C@H](NC(=O)[C@H](NC(=O)OCc3cnn[nH]3)c3ccccc3)C(=O)N2[C@H]1C(=O)O [TMB5]	8	>8	2 and 4	>8	>8	4	>8	2	>8	1	–	do not show an antibacterial activity	>8	2	–	–	8	>8	8/>8	4
CC[P+](CC)(CC)[Au-][c]1nn[nH]c1CCCO [TMB34]	0.125	≤0.06	0.125	≤0.06	0.125	0.125	0.125	≤0.06	≤0.06	≤0.06	–	have antimicrobial activity	>8	≤0.06	–	–	0.125	≤0.06	≤0.06	≤0.06
CC[P+](CC)(CC)[Au-][c]1nn[nH]c1COC(=O)NC(C(=O)O)c1ccc(O)cc1 (stereo not drawn) [TMB26]	0.25	0.25	0.25	≤0.06	0.5	0.5	0.5	0.125	0.125	≤0.06	–	have antimicrobial activity	>8	0.125	–	–	0.25	≤0.06	≤0.06	0.125
CC1(C)S[C@@H]2[C@H](NC(=O)[C@H](NC(=O)CCc3cn(Cc4ccccc4)nn3)c3ccccc3)C(=O)N2[C@H]1C(=O)O [TMB9]	8	>8	2	>8	>8	4	>8	1	>8	1	–	do not show an antibacterial activity	>8	1	–	–	8	8/>8	8	2-4
CC1(C)S[C@@H]2[C@H](NC(=O)[C@H](NC(=O)OCc3cnnn3Cc3ccccc3)c3ccccc3)C(=O)N2[C@H]1C(=O)O [TMB7]	4	>8	1 and 2	>8	>8	2	>8	1	>8	1	–	do not show an antibacterial activity	>8	1	–	–	8	>8	8	4
